Converted amounts (≈) assume the structure as drawn.
Experiments:
CCRF-CEM = assay: Cytotoxicity against human CCRF-CEM cells; format: functional, cell-based
[1] = Apparent permeability across basolateral to apical side in human Caco-2 cells incubated for 2 hrs by HPLC-MS analysis; format: ADME, cell-based
SK-OV-3 = assay: Cytotoxicity against human SK-OV-3 cells incubated for 96 hrs by PrestoBlue reagent based cell viability assay; format: functional; details: SK-OV-3, 96 h
BT-474 = assay: Antiproliferative activity against human BT-474 cells assessed as inhibition of cell growth incubated for 4 days by WST-8 assay; format: functional, cell-based; details: BT-474, 96 h
A2780 [2] = assay: Cytotoxicity against human A2780 cells assessed as inhibition of cell growth incubated for 72 hrs by MTT assay; format: functional, cell-based; details: A2780, 72 h
Tubulin = assay: Displacement of fluorescent Maytansine probe from tubulin (unknown origin) assessed as dissociation constant by competitive binding based fluorescence anisotropy; format: protein-complex assay, Homo sapiens
KB 3-1 = assay: Cytotoxicity against human KB 3-1 cells assessed as inhibition of cell growth incubated for 3 days by SRB assay; format: functional, cell-based; details: KB 3-1, 72 h
HepG2 = assay: Cytotoxicity against human HepG2 cells assessed as inhibition of cell growth incubated for 72 hrs by fluorometric assay; format: functional, cell-based; details: HepG2, 72 h
[3] = Cytotoxicity against human L540cy cells assessed as reduction in cell growth incubated for 4 days by CellTiter-Glo luminescent assay; format: functional, cell-based; details: 96 h
A2780 [4] = assay: Cytotoxicity against human A2780 cells; format: functional, cell-based
HT-29 [5] = assay: Antiproliferative activity against human HT-29 cells assessed as inhibition of cell growth incubated for 72 hrs by coulter counter method; format: functional, cell-based; details: HT-29, 72 h
HT-29 [6] = assay: Antiproliferative activity against human HT-29 cells assessed as inhibition of cell growth incubated for 48 to 96 hrs by MTT assay; format: functional, cell-based
K562 = assay: Antiproliferative activity against human K562 cells assessed as inhibition of cell growth incubated for 5 days by WST-1 assay; format: functional, cell-based; details: K562, 120 h
[7] = Inhibition of RNA polymerase II phosphorylation in human HeLa cells by Western blot analysis; format: cell-based
SK-BR-3 = assay: Cytotoxicity against human SK-BR-3 cells incubated for 4 to 7 days hrs by CellTiter-Glo luminescent assay; format: functional, cell-based

`COc1ccc(C[C@H]2NC(=O)/C=C/C[C@@H]([C@H](C)[C@@H](O)[C@@H](Cl)c3ccccc3)OC(=O)[C@H](CC(C)C)OC(=O)C(C)(C)CNC2=O)cc1Cl` gave an IC50 (CCRF-CEM) of 0.027 nM.
For `CC[C@H](C)[C@@H]([C@@H](CC(=O)N1CCC[C@H]1[C@H](OC)[C@@H](C)C(=O)N[C@@H](Cc1ccccc1)c1nnc(-c2ccccc2)o1)OC)N(C)C(=O)[C@@H](NC(=O)[C@H](C(C)C)N(C)CCCC(=O)O)C(C)C`, the Papp B→A at 2 h [1] was 2.9 ×10⁻⁶ cm/s.
Compound `CC[C@H](C)[C@@H]([C@@H](CC(=O)N1CCC[C@H]1[C@H](OC)[C@@H](C)C(=O)N[C@@H](Cc1ccccc1)c1nccs1)OC)N(C)C(=O)[C@@H](NC(=O)[C@H](C(C)C)N(C)CC(O)C(O)C(O)C(O)CN=[N+]=[N-])C(C)C` (some centres undefined) has an IC50 (SK-OV-3) of under 1 nM.
With `CC[C@H](C)[C@@H]([C@@H](CC(=O)N1C[C@@H](NC)C[C@H]1[C@H](OC)[C@@H](C)C(=O)NCCc1c(F)cccc1F)OC)N(C)C(=O)[C@@H](NC(=O)[C@H](C(C)C)N(C)C)C(C)C` the IC50 (BT-474) was under 0.4 nM.
Work on `CC[C@H](C)[C@@H]([C@@H](CC(=O)N1C[C@@H](N)C[C@H]1[C@H](OC)[C@@H](C)C(=O)NCCc1c(F)cccc1F)OC)N(C)C(=O)[C@@H](NC(=O)[C@H](C(C)C)N(C)C)C(C)C` yielded an IC50 (BT-474) of under 0.4 nM.
For `COc1cc2cc(c1Cl)N(C)C(=O)C[C@H](OC(C)=O)[C@@]1(C)O[C@H]1[C@H](C)[C@@H]1C[C@@](O)(NC(=O)O1)[C@H](OC)/C=C/C=C(\C)C2`, the IC50 (A2780 [2]) was 0.25 nM and the Kd (Tubulin) was 11 nM.
`CN[C@H](C(=O)N[C@H](C(=O)N(C)[C@H](/C=C(\C)C(=O)N1CCC[C@H]1[C@H](OC)[C@@H](C)C(=O)N[C@@H](Cc1ccccc1)c1nccs1)C(C)C)C(C)(C)C)C(C)(C)c1ccccc1` showed an IC50 (KB 3-1) of 0.75 nM.
In the case of `CC[C@H](C)[C@@H]([C@@H](CC(=O)N1C[C@@H](NC(=O)OC(C)(C)C)C[C@H]1[C@H](OC)[C@@H](C)C(=O)NCCc1c(F)cccc1F)OC)N(C)C(=O)[C@@H](NC(=O)[C@H](C(C)C)N(C)C)C(C)C`, the IC50 (HepG2) is reported as 0.13 nM.
Work on `Nc1cccc(C(=O)N2CCC(CCCCNC(=O)/C=C/c3cccnc3)CC2)c1` yielded an EC50 [3] of 6.3 nM.
Compound `CC(=O)N[C@@H](C)c1ccc(NC(=O)[C@H]2C[C@@H]2c2cccnc2)cc1` has an IC50 (A2780 [4]) of 5 nM.
`CC[C@H](C)[C@H](NC(=O)[C@H]1CCCCN1C)C(=O)N(CC1CC1)[C@H](C[C@@H](OC(C)=O)c1nc(C(=O)N[C@@H](Cc2ccccc2)C[C@H](C)C(=O)O)cs1)C(C)C` showed an IC50 (HT-29 [5]) of 0.055 nM.
`CC[C@H](C)[C@@H]([C@@H](CC(=O)N1CCC[C@H]1[C@H](OC)[C@@H](C)C(=O)N[C@H](Cc1ccccc1)c1nnc(-c2ccccc2)o1)OC)N(C)C(=O)[C@@H](NC(=O)[C@H](C(C)C)N(C)CCCC(=O)O)C(C)C` gave a Papp B→A at 2 h [1] of 4.5 ×10⁻⁶ cm/s and an IC50 (HT-29 [6]) of 0.1 nM.
In the case of `CC[C@H](C)[C@H](NC(=O)[C@H]1CCCCN1C)C(=O)N(COC(=O)CC(C)C)[C@H](C[C@@H](OC(C)=O)c1nc(C(=O)N[C@H](Cc2ccccc2)C[C@H](C)C(=O)O)cs1)C(C)C`, the IC50 (K562) is reported as 0.02 ng/mL (≈ 0.0242 nM).
Work on `C#CCCCCC(=O)O[C@H]1CC(=O)N(C)c2cc(cc(OC)c2Cl)C/C(C)=C/C=C/[C@@H](OC)[C@@]2(O)C[C@H](OC(=O)N2)[C@@H](C)[C@@H]2O[C@]12C` yielded an IC50 (A2780 [2]) of 0.033 nM and a Kd (Tubulin) of 20 nM.
Compound `CC[C@H](C)[C@@H]1NC(=O)CNC(=O)[C@H]2CC(=O)[C@H]([C@@H](C)[C@@H](O)CO)NC(=O)[C@@H]3C[C@@H](C#N)CN3C(=O)[C@H](CC(N)=O)NC(=O)[C@H](CSc3[nH]c4cc(O)ccc4c3C2)NC(=O)CNC1=O` has an IC50 [7] of 480 nM.
With `CCCO[C@H](C[C@H](C(C)C)N(C)C(=O)[C@@H](NC(=O)[C@H]1CCCCN1C)C(C)C)c1nc(C(=O)N[C@@H](Cc2ccc(N)cc2)C[C@H](C)C(=O)O)c(CCOCc2ccccc2)s1` the IC50 (SK-BR-3) was 0.04 nM.

From ChEMBL document CHEMBL5608211, “Antibody-drug conjugates for targeted cancer therapy: Recent advances in potential payloads” (Eur J Med Chem, 2024)
